Consider 86 molecules from ChEMBL document CHEMBL1157539, “Thousands of chemical starting points for antimalarial lead identification” (Nature, 2010).

The structures appear in SMILES notation.

The subject of the test is Plasmodium falciparum. The experiment in a line: GSK_TCMDC: Inhibition of Plasmodium falciparum 3D7 in whole erythrocytes, using parasite LDH activity as an index of growth. The test is classed as functional, organism-based. Particulars: Plasmodium falciparum, 3D7.
As to `Cc1cc(N/N=C/c2cccc([N+](=O)[O-])c2)c2ccccc2n1`, the XC50 came to 728 nM.
As to `CCN(CC)CCCN(Cc1ccc(-c2ccc(C(F)(F)F)cc2)cc1)C(=O)Cn1c(SCc2cccc(F)c2F)cc(=O)c2ccccc21`, the XC50 worked out at 1320 nM.
Molecule `CN1CCCc2ccc(NC(=O)c3cnc(-c4ccccc4)cn3)cc21` returned an XC50 of 905 nM.
`CS(=O)(=O)CCOCc1ccc(-c2ccc3ncnc(Nc4ccc(OCc5cccc(F)c5)c(Cl)c4)c3c2)o1` registered an XC50 of 803 nM.
The molecule `Cc1ccc(CNc2cc(C(F)(F)F)nc(-c3ccc(S(C)(=O)=O)cc3)n2)cc1` returned an XC50 of 498 nM.
The molecule `CN(C)Cc1ccc2nc(-c3cccc(Cc4cc(Cl)ccc4OCc4ccc(Cl)cc4F)n3)[nH]c2c1` displayed an XC50 of 1130 nM.
`Cc1ccc(NC(=O)c2cc(Br)cc(N3CCC(N(C)C)CC3)c2)cc1F` yielded an XC50 of 840 nM.
With `NC(=O)N1CCN(Cc2ccc(Br)cc2)CC1`, the XC50 was 619 nM.
To `Cc1cc(NCCc2ccc(O)cc2)nc(NCC(c2ccccc2)c2ccccc2)n1` belongs 320 nM.
Turning to `CC(N)(Cc1ccc(O)cc1)c1nnn[nH]1` (stereo unspecified), the XC50 is 969 nM.
`CCCC(C)NC(=O)[C@H](CC1CCCCC1)NC(=O)c1ccc(O)c(-c2cccc(C(F)(F)F)c2)c1` (stereo partly specified) had an XC50 of 534 nM.
`COc1ccc(-n2ccnc2SCC(=O)Nc2cc(C(F)(F)F)ccc2Cl)c(OC)c1` yielded an XC50 of 35 nM.
The molecule `c1cnc2ccc(NCc3ccc(-c4ccc(CNC5CCCC5)cc4)cc3)cc2c1` came in with an XC50 of 874 nM.
Molecule `Cc1ccc(CNC(=O)[C@H](CC(C)C)Nc2cc(C)nc(Nc3ccccc3)n2)cc1` returned an XC50 of 1770 nM.
`O=C(Nc1ccccc1)c1c[nH]cn1` came in with an XC50 of 991 nM.
In the case of `Cc1cccc2nc(-c3ccc(-c4ccc(CN5CCN(C6CCN(C)CC6)CC5)cc4)s3)[nH]c12`, the XC50 was determined as 145 nM.
`Oc1ccccc1CNCC(O)c1cc(C(F)(F)F)cc(C(F)(F)F)c1` (stereo unspecified) had an XC50 of 184 nM.
As for `O=C(NC1CCC(N2CCC(c3nc4ccccc4s3)CC2)CC1)c1cc2ccccc2[nH]1` (stereo unspecified), the XC50 was 926 nM.
Then `CN1CCCc2cc(NC(=O)c3cc(-c4ccc(Cl)cc4)cs3)ccc2C1`, with 810 nM.
To `CCc1cc(NC(=O)Nc2ccnc3ccccc23)ccc1OC` belongs 138 nM; to `CC(Sc1nc2sccc2c(=O)n1C)C(=O)Nc1ccc2c(c1)OCO2` (stereo unspecified), 1040 nM.
Molecule `O=C(/C=C/c1ccc(Cl)c(Cl)c1)NCCCCCN1CCC(NC(=O)c2cc(Cl)ccc2F)CC1` had an XC50 of 1160 nM.
Molecule `O=C(NCC(CCCN1CCC(c2c[nH]c3ccccc23)CC1)c1ccccc1)Nc1ccc(Cl)c(Cl)c1` (stereo unspecified) showed an XC50 of 787 nM.
To `C=CCN(c1nc(NC)nc(NCc2c(OC)cccc2OC)n1)C1CCCC1` belongs 1460 nM; to `CC1CCN(C(=O)[C@H](Cc2c[nH]c3ccccc23)NS(=O)(=O)c2ccc(Cl)cc2)CC1`, 667 nM; to `Cc1cccc2nc(-c3ccc(-c4ccc(CN5CCCC(O)C5)cc4)cc3)[nH]c12` (stereo unspecified), 859 nM.
Regarding `Cc1cccc(C)c1OC(=O)CSc1nnc(-c2ccccc2O)o1`, the XC50 was 884 nM.
On to `CC(C)C[C@H](Nc1ccnc(NCC2CCCCC2)n1)C(=O)NCCOc1ccccc1`, for which the XC50 stood at 1020 nM.
`O=C(Nc1cccc(-c2ccc(CN3CCC(O)CC3)cc2)c1)c1ccc(Cl)cc1` showed an XC50 of 961 nM.
To `COc1ccc(NC(=O)NC2CCN(CCCOc3cc(C)nc4ccccc34)CC2)cc1OC` belongs 1280 nM; to `CCc1ccccc1N1CCN(CCCCNC(=O)c2ccc(NC(=O)c3ccc(Cl)cc3)cc2)CC1`, 960 nM; to `CC1CCC2(CC1)N=C(N)N=C(N)N2OCc1cc2ccccc2c2ccccc12` (stereo unspecified), 243 nM.
In the case of `CC(C)C[C@H](Nc1ccnc(NCC2CCCCC2)n1)C(=O)NCCc1ccccc1`, the XC50 stood at 750 nM.
Regarding `O=C(COc1ccccc1Cc1ccccc1)Nc1cc(Cl)ccc1-n1cncn1`, the XC50 was 640 nM.
To `COc1ccc2nc(-c3ccccc3)cc(NCCCNc3cc(-c4ccccc4)nc4ccc(OC)cc34)c2c1` belongs 122 nM; to `Cn1c(NC(=O)C2CCC(CNC(=O)c3ccc(O)c(-c4cccc([N+](=O)[O-])c4)c3)CC2)nc2ccccc21` (stereo unspecified), 982 nM.
For the molecule `CC1(C)N=C(N)N=C(N)N1c1ccc([N+](=O)[O-])cc1`, the XC50 is 234 nM.
To `COc1cc(Cc2cnc(N)nc2N)cc(OCCn2ccccc2=O)c1OC` belongs 773 nM; to `CN1CCC(C(=O)Nc2cccc(-c3ccc(-c4nc5cc(C(F)(F)F)ccc5[nH]4)cc3)c2)CC1`, 675 nM; to `CC[C@H]1CN2CCc3cc(OC)c(OC)cc3[C@@H]2C[C@@H]1C[C@H]1NCCc2c1cc(OC)c(O)c2Cl`, 144 nM.
`O=C(c1ccc(-c2cnc3[nH]cc(-c4ccc(C(=O)N5CCOCC5)cc4)c3c2)cc1)N1CCOCC1`: the XC50 was 1000 nM.
Regarding `O=C(NCCCCCN1CCC(c2c[nH]c3ccccc23)C1)Nc1ccc(Cl)c(Cl)c1` (stereo unspecified), the XC50 amounted to 811 nM.
In turn, `Nc1[nH]c2ccccc2c(=O)c1-c1nc2ccccc2s1` showed an XC50 of 303 nM.
As for `O=C(Nc1cccc(-c2ccc(-c3nc4cc(C(F)(F)F)ccc4[nH]3)s2)c1)c1ccncc1`, the XC50 was 681 nM.
Regarding `CCN(CC)CCn1c(=N)n(CC(O)c2ccc(Cl)c(Cl)c2)c2ccccc21` (stereo unspecified), the XC50 was 785 nM.
Turning to `Cc1ccccc1C1CCN(C2CCC(NC(=O)/C=C/c3cccc(F)c3)CC2)CC1` (stereo unspecified), the XC50 worked out at 1190 nM.
`N=C(N)Nc1nc(-c2cccc(NC(=O)NCc3ccc(OC(F)(F)F)cc3)c2)cs1` displayed an XC50 of 703 nM.
Then `CCc1ccc(-n2c(NC(=O)c3ccccc3)nc3ccc(S(=O)(=O)NC(C)C(C)C)cc32)cc1` (stereo unspecified), with 926 nM.
Take `CN(C)CCCc1cc2c(cc1Cl)CCN2C(=O)Nc1ccc(-c2ccncc2)c2ccccc12`: the XC50 turned out to be 1180 nM.
With `COc1cccc(OC(C)(C)c2nc(N[C@@H](C)c3ccccc3)c3cn[nH]c3n2)c1`, the XC50 was 968 nM.
`CC(=O)Nc1cc(C(=O)Nc2cccc(-c3cccc(-c4nc5cccc(C)c5[nH]4)c3)c2)ccc1C` displayed an XC50 of 329 nM.
To `O=C(NCCCN1CCC(N2CCCCC2)CC1)C1=Cc2cc(Br)ccc2OC1` belongs 853 nM; to `O=C(Nc1ccc(-c2nc3ccccc3[nH]2)cc1)c1ccc(N2CCOCC2)c([N+](=O)[O-])c1`, 794 nM; to `COc1ccc2nccc([C@@H](O)CN3CCC(NCc4ccc5c(c4)NC(=O)C(C)S5)CC3)c2c1` (stereo partly specified), 200 nM.
To `O=C(Cc1ccc[n+]([O-])c1)Nc1ccc(-c2cccc(-c3nc4cc(C(F)(F)F)ccc4[nH]3)c2)cc1` belongs 882 nM.
As for `Cc1ccc(NC(=O)c2cccc(CN3CCCN(Cc4cccc(O)c4)CC3)c2)cc1F`, the XC50 amounted to 705 nM.
Consider `COc1ccc(NC(=O)Nc2cc(C)nc3ccccc23)cc1Cl`, for which the XC50 was 688 nM.
`CCc1ccccc1N1CCN(CCCC(=O)c2ccc(NC(=O)c3ccc(Cl)cc3)cc2)CC1` returned an XC50 of 1310 nM.
`O=C(N1CCN(c2ccnc3cc4c(cc23)N(Cc2ccccc2)CC4)CC1)C(F)(F)F`: the XC50 stood at 257 nM.
The molecule `Cc1cc(F)ccc1Oc1nc(Nc2ccc(N3CCOCC3)c(F)c2)nc2c1S(=O)(=O)CCC2` registered an XC50 of 462 nM.
In turn, `NCc1cccc(-c2cccc(CN(C(=O)Nc3ccccc3)C3CCN(Cc4ccccc4)CC3)c2)c1` showed an XC50 of 829 nM.
Then `CCCCCNC(=N)c1ccc(OCCCCCOc2ccc(C(=N)NCCCCC)cc2)cc1`, with 247 nM; and `CC(C)Cn1c(Sc2ccc(C#N)c([N+](=O)[O-])c2)nnc1-c1ccccc1`, with 1090 nM.
As for `Nc1cccc(CNCc2ccc(-c3cccc(-c4nc5cc(F)ccc5[nH]4)c3)cc2)c1`, the XC50 came out at 213 nM.
To `COc1ccc(N2CCN(c3nc(N)c4cc(OC)c(OC)cc4n3)CC2C)cc1` (stereo unspecified) belongs 1420 nM; to `Cc1cc(N2CCCC2)nc(Nc2ccc(NC(=O)c3ccco3)cc2)n1`, 842 nM.
To `Brc1cnc(NC2=NCCN2)c(Br)c1` belongs 335 nM.
Molecule `COc1cc(-c2ccc(-c3cnc(N)nc3OC)[nH]2)cc(OC)c1OC` returned an XC50 of 729 nM.
`CC(C)(CNC(=O)C1CCN(CCOc2ccc(F)c(F)c2)CC1)c1nc(-c2ccc(Cl)c(O)c2)c(-c2ccncc2)[nH]1` displayed an XC50 of 316 nM.
The molecule `CCCC(CCC)n1ccc2c3c(N)nc(N)nc3ccc21` showed an XC50 of 4.9 nM.
Then `Cc1noc(C)c1-c1ccc(C(=C2CCCCCCC2)c2ccc(O)cc2)cc1`, with 1050 nM.
Molecule `COc1ccc2nccc(N3CCC(SCCNS(=O)(=O)c4ccc5c(c4)NC(=O)CS5)C3)c2n1` (stereo unspecified) returned an XC50 of 1580 nM.
`c1csc(-c2nc(NCC3CCCO3)ncc2-c2ccsc2)n1` (stereo unspecified) showed an XC50 of 487 nM.
Then `Cc1n[nH]c2ccc(-c3ccc4nccc(N5CCC(N)CC5)c4c3)cc12`, with 591 nM.
To `CCNc1cc(C(=O)N[C@@H](Cc2ccccc2)[C@H](O)CNC2(C(C)C)CCC2)cc(N2CCCCS2(=O)=O)c1` belongs 685 nM; to `COc1cc2ncnc(Nc3ccc(OCc4ccccc4)c(C(F)(F)F)c3)c2cc1OC`, 253 nM; to `O=C(CC1NC(=O)c2ccccc21)Nc1ccc(-c2cccc(-c3nc4cc(C(F)(F)F)ccc4[nH]3)c2)cc1` (stereo unspecified), 958 nM.
The molecule `Cc1ccc(CNC(=O)[C@H](CCCN)Nc2nc(Nc3ccccc3)ncc2C)cc1` yielded an XC50 of 1530 nM.
The molecule `O=C(Nc1ccc2c(c1)CCN2C1CCN(Cc2cccc3cc[nH]c23)C1)c1ccco1` (stereo unspecified) yielded an XC50 of 1210 nM.
To `CN(C)Cc1c(O)ccc2[nH]c(-c3ccc(OC(F)(F)F)cc3)nc12` belongs 727 nM; to `O=C(Nc1ccc(Cl)c(-c2nc3ccccc3[nH]2)c1)c1ccc(-c2ccc(Cl)cc2)o1`, 785 nM; to `C[C@H](NC(=O)c1c(CN2CCN(C(=O)C(C)(C)C)CC2)c(-c2cccs2)nc2ccccc12)C1CCCCC1`, 1180 nM.
For the molecule `CCCCCCCN(Cc1ccc(OC(C)(C)C(=O)OCC)cc1)C(=O)Nc1ccccc1OCC`, the XC50 is 1030 nM.
Then `Cc1cc(N[C@@H](CC(C)C)C(=O)NC2CCCC2)nc(NCC2CCCCC2)n1`, with 858 nM; and `CC(C)CN1CCC(COc2ccc3ncn(-c4cc(O[C@H](C)c5ccccc5C(F)(F)F)c(C(N)=O)s4)c3c2)CC1`, with 618 nM; and `Cc1ccc(Cn2cnc3cc(C(=O)Nc4ccc(-c5ccc(CN(C)C)cc5)cc4)ccc3c2=O)o1`, with 1260 nM.
